Test system: participants with SSc-RP
Assay: Average duration of weekly RP attacks (minutes)
Assay type: in vivo, human
Details: Tadalafil 5 mg
Source text: The absolute change in average duration of weekly RP attacks from baseline to the end of each dosing period was and will be a secondary outcome variable. The sponsor-developed participant-informed diary was and will be used to record data. Average duration of weekly RP attacks is defined as the total duration of RP attacks divided by total number of RP attacks within the last 7 days of each dosing period. Total duration of RP attacks during the last 7 days of screening period divided by the total number of RP attacks will be used as baseline for the analysis of all periods. The variable will be calculated similar to frequency data as before.

[1] = n=1, Excluding Outliers, ITT Part A
[2] = Baseline RCS subgroup 2 (unnamed), ITT Part A
[3] = Excluding Outliers, Baseline RCS subgroup 2 (unnamed), ITT Part A
[4] = Excluding Outliers, ITT Population - Part A
[5] = Excluding Outliers, by Baseline RCS, subgroup 2, ITT Population - Part A
[6] = by Baseline RCS, subgroup 2, ITT Population - Part A

CN1CC(=O)N2[C@H](c3ccc4c(c3)OCO4)c3[nH]c4ccccc4c3C[C@@H]2C1=O [Tadalafil, tadalafil]
−7.81%: Average Duration of Weekly RP Attacks (All Attacks) Percent Change from Baseline, Mean (ITT Part A) | Average Duration of Weekly RP Attacks (All Attacks) Percent Change from Baseline, Median (ITT Part A) | Average Duration of Weekly RP Attacks (All Attacks) Percent Change from Baseline, Mean [6] | Average Duration of Weekly RP Attacks (All Attacks) Percent Change from Baseline, Median [6]
−45.55%: Average Duration of Weekly RP Attacks (All Attacks) Percent Change from Baseline, Mean [4] | Average Duration of Weekly RP Attacks (All Attacks) Percent Change from Baseline, Median [4] | Average Duration of Weekly RP Attacks (All Attacks) Percent Change from Baseline, Mean [5] | Average Duration of Weekly RP Attacks (All Attacks) Percent Change from Baseline, Median [5]
6.00 min: Average Duration of Weekly Symptomatic RP Attacks, Mean [1] | Average Duration of Weekly Symptomatic RP Attacks, Median [1] | Average Duration of Weekly Symptomatic RP Attacks, Mean [3] | Average Duration of Weekly Symptomatic RP Attacks, Median [3]
412.29 min: Average Duration of Weekly Symptomatic RP Attacks, Mean (n=2, ITT Part A) | Average Duration of Weekly Symptomatic RP Attacks, Median (n=2, ITT Part A) | Average Duration of Weekly Symptomatic RP Attacks, Mean [2] | Average Duration of Weekly Symptomatic RP Attacks, Median [2]
5.95 min: Average Duration of Weekly RP Attacks (All Attacks), Mean [4] | Average Duration of Weekly RP Attacks (All Attacks), Median [4] | Average Duration of Weekly RP Attacks (All Attacks), Mean [5] | Average Duration of Weekly RP Attacks (All Attacks), Median [5]
-4.58 min: Average Duration of Weekly Symptomatic RP Attacks, Change from Baseline, Mean [1] | Average Duration of Weekly Symptomatic RP Attacks, Change from Baseline, Median [1] | Average Duration of Weekly Symptomatic RP Attacks, Change from Baseline, Mean [3] | Average Duration of Weekly Symptomatic RP Attacks, Change from Baseline, Median [3]
5.21%: Average Duration of Weekly Symptomatic RP Attacks, Percent Change from Baseline, Mean (n=2, ITT Part A) | Average Duration of Weekly Symptomatic RP Attacks, Percent Change from Baseline, Median (n=2, ITT Part A) | Average Duration of Weekly Symptomatic RP Attacks, Percent Change from Baseline, Mean [2] | Average Duration of Weekly Symptomatic RP Attacks, Percent Change from Baseline, Median [2]
91.80 min: Average Duration of Weekly RP Attacks (All Attacks) Change from Baseline, Mean (ITT Part A) | Average Duration of Weekly RP Attacks (All Attacks) Change from Baseline, Median (ITT Part A) | Average Duration of Weekly RP Attacks (All Attacks) Change from Baseline, Mean [6] | Average Duration of Weekly RP Attacks (All Attacks) Change from Baseline, Median [6]
-4.98 min: Average Duration of Weekly RP Attacks (All Attacks) Change from Baseline, Mean [4] | Average Duration of Weekly RP Attacks (All Attacks) Change from Baseline, Median [4] | Average Duration of Weekly RP Attacks (All Attacks) Change from Baseline, Mean [5] | Average Duration of Weekly RP Attacks (All Attacks) Change from Baseline, Median [5]
140.74 min: Average Duration of Weekly Symptomatic RP Attacks, Change from Baseline, Mean (n=2, ITT Part A) | Average Duration of Weekly Symptomatic RP Attacks, Change from Baseline, Median (n=2, ITT Part A) | Average Duration of Weekly Symptomatic RP Attacks, Change from Baseline, Mean [2] | Average Duration of Weekly Symptomatic RP Attacks, Change from Baseline, Median [2]
412.26 min: Average Duration of Weekly RP Attacks (All Attacks), Mean (ITT Part A) | Average Duration of Weekly RP Attacks (All Attacks), Median (ITT Part A) | Average Duration of Weekly RP Attacks (All Attacks), Mean [6] | Average Duration of Weekly RP Attacks (All Attacks), Median [6]
−43.31%: Average Duration of Weekly Symptomatic RP Attacks, Percent Change from Baseline, Mean [1] | Average Duration of Weekly Symptomatic RP Attacks, Percent Change from Baseline, Median [1] | Average Duration of Weekly Symptomatic RP Attacks, Percent Change from Baseline, Mean [3] | Average Duration of Weekly Symptomatic RP Attacks, Percent Change from Baseline, Median [3]

Reference: patent US20240358693A1, “METHODS OF TREATING PAIN” (Aisa Pharma, Inc., priority 2023, published 2024)
